Holding throughout (assay): PI3K enzyme inhibitory activity in the cell free assay (ADP-Glo Kinase Assay)
What all share (type): biochemical
For orientation: In ADP-Glo the light output rises with the ADP produced.

One assay has as its target T1, PI3Kα (Homo sapiens, UniProt P42336).
T1 construct: purchased Millipore Ltd (Billerica, Mass.)
The conditions noted are these: human recombinant PI3Kα, ATP 50 μM; read-out: PI3K alpha inhibition.

The target of a further assay is T2, PI3Kβ (Homo sapiens, UniProt P42338).
T2 construct: purchased Millipore Ltd (Billerica, Mass.)
The conditions noted are these: human recombinant PI3Kβ, ATP 100 μM; read-out: PI3K beta inhibition.

In the next assay the target is T3, PI3Kδ (Homo sapiens, UniProt O00329).
T3 construct: purchased Millipore Ltd (Billerica, Mass.)
T3 sequence (O00329 1-1044): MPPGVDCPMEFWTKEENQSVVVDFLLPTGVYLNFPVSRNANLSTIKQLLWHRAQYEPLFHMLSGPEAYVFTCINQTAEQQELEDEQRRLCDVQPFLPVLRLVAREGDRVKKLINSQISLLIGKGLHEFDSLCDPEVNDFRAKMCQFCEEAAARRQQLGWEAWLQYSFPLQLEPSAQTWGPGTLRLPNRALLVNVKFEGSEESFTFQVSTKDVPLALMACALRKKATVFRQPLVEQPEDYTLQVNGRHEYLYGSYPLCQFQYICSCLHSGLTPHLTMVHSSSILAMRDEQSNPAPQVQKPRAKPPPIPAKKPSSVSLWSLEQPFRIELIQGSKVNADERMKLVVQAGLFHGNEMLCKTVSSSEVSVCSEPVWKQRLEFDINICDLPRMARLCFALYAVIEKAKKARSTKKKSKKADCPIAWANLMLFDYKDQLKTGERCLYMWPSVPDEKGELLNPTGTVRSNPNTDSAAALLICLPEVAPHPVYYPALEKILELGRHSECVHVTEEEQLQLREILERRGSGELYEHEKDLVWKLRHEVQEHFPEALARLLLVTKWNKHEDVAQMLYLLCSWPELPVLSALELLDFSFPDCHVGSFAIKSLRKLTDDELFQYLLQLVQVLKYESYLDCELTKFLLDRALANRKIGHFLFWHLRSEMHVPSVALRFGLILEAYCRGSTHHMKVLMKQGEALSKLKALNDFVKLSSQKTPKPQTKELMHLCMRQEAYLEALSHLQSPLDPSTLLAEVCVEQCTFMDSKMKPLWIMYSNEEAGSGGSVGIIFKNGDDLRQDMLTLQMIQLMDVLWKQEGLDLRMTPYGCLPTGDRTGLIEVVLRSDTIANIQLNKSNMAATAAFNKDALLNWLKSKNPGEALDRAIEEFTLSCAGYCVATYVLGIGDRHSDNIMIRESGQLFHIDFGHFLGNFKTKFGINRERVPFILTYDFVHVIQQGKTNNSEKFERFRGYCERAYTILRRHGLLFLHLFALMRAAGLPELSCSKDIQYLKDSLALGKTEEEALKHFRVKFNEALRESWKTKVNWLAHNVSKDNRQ
The conditions noted are these: human recombinant PI3Kδ, ATP 80 μM; read-out: PI3K delta inhibition.

A further assay deals with T4, PI3Kγ (Homo sapiens, UniProt P48736).
T4 construct: purchased Millipore Ltd (Billerica, Mass.)
The settings on record: human recombinant PI3Kγ, ATP 30 μM; read-out: PI3K gamma inhibition.

Experimental findings from patent publication US9321776B2, “Isochromene derivatives as phoshoinositide 3-kinases inhibitors” (CHIESI FARMACEUTICI S.p.A., priority 2013, dated 2016) are described below.

Structures can show the parent of a compound that is named as a salt.

T4 sequence (P48736 whole entry): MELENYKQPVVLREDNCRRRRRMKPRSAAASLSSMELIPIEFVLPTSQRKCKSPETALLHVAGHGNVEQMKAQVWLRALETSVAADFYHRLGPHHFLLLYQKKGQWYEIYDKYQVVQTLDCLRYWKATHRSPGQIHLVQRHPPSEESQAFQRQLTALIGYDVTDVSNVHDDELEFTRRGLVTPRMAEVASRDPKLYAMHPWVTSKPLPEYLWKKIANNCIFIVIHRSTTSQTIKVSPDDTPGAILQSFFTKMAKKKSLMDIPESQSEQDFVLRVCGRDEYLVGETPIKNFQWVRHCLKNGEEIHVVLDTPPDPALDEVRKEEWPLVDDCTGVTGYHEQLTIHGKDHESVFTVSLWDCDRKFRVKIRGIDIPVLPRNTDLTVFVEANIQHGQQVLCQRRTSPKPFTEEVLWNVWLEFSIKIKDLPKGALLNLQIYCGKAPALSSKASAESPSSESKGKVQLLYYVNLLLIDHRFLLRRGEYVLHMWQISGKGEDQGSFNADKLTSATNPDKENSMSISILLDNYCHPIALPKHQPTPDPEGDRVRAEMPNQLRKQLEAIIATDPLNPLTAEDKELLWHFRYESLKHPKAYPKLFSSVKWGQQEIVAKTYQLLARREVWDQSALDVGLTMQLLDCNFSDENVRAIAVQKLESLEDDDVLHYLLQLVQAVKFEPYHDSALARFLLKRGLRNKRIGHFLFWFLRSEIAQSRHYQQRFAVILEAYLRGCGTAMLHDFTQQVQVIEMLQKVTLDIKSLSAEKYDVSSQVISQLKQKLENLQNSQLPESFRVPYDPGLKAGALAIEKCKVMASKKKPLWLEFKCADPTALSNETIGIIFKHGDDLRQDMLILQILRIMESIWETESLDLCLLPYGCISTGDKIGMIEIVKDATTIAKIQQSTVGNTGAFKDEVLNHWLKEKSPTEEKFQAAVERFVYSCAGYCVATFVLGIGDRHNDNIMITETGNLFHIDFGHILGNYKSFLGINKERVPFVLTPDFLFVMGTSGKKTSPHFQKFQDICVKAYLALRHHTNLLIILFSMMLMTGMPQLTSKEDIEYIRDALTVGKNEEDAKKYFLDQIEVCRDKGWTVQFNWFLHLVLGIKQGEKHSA
T1 sequence (P42336 whole entry): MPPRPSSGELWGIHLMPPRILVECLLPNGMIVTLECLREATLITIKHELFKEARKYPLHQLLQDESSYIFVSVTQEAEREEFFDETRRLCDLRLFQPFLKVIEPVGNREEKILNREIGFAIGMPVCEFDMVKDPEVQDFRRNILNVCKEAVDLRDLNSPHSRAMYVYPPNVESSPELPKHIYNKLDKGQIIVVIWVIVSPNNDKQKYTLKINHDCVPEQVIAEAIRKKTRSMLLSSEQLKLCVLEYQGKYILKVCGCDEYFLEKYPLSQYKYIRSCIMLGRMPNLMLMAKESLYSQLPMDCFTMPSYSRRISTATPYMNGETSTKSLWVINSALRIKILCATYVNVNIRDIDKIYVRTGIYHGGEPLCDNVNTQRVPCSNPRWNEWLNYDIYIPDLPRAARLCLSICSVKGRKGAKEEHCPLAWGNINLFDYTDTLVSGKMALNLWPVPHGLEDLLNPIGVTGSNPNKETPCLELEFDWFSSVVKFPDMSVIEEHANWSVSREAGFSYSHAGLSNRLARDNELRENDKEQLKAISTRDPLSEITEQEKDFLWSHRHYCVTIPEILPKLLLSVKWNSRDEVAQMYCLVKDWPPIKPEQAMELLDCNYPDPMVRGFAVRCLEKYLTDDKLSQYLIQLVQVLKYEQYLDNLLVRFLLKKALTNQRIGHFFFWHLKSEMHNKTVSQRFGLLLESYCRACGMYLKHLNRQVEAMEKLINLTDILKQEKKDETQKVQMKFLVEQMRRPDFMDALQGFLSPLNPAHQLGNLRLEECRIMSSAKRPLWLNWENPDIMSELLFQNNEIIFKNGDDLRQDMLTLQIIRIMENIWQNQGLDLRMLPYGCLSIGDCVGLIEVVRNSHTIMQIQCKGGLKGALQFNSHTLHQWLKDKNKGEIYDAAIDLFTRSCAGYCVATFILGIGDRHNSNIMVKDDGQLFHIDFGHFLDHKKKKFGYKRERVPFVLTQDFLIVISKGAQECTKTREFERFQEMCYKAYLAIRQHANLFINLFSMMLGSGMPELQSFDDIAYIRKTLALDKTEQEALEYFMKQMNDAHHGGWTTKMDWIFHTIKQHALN
T2 sequence (P42338 whole entry): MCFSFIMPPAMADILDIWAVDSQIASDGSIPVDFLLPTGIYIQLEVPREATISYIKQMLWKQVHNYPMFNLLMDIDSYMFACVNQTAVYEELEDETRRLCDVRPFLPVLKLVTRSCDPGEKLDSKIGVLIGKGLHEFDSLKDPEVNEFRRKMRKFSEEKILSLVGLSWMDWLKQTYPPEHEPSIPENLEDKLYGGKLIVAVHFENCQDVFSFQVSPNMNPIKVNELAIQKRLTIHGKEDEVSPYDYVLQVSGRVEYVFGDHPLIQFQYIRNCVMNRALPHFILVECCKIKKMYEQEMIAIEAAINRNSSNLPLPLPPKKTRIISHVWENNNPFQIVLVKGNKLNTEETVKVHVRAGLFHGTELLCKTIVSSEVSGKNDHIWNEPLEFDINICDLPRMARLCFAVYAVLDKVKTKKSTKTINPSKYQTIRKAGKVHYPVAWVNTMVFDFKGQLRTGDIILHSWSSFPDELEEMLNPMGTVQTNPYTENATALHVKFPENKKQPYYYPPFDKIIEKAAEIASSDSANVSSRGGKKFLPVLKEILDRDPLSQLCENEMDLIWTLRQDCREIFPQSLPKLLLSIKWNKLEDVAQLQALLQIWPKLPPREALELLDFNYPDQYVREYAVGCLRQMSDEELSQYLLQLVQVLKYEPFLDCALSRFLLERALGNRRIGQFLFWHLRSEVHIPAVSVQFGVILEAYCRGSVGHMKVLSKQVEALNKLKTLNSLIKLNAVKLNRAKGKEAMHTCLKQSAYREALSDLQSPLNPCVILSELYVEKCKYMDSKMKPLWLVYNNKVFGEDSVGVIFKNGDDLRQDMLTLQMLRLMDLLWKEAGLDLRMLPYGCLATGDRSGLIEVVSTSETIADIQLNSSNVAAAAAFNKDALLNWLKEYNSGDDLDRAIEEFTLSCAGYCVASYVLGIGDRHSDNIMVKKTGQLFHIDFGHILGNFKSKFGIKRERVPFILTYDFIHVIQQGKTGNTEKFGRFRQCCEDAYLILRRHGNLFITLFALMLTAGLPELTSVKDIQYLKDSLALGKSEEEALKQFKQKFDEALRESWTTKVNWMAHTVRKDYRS

For the compound `CC(c1oc(=O)c2ccccc2c1C1=CCCN(C)C1)n1nc(-c2cc(O)cc(F)c2)c2c(N)ncnc21` (centres unmarked) [Example 63, 3-(1-(4-amino-3-(3-fluoro-5-hydroxyphenyl)-1H-pyrazolo[3,4-d]pyrimidin-1-yl)ethyl)-4-(1-methyl-1,2,5,6-tetrahydropyridin-3-yl)-1H-isochromen-1-one hydrochloride], the IC50 is 10 to 1000 nM on PI3Kα, 10 to 1000 nM on PI3Kβ, less than 10 nM on PI3Kδ and 10 to 1000 nM at PI3Kγ.
On to `CC(c1oc(=O)c2ccccc2c1C1=CCN(Cc2ccncc2)CC1)n1nc(-c2cc(O)cc(F)c2)c2c(N)ncnc21` (centres unmarked) [Example 65, 3-(1-(4-amino-3-(3-fluoro-5-hydroxyphenyl)-1H-pyrazolo[3,4-d]pyrimidin-1-yl)ethyl)-4-(1-(pyridin-4-ylmethyl)-1,2,3,6-tetrahydropyridin-4-yl)-1H-isochromen-1-one hydrochloride], for which the IC50 was 10 to 1000 nM at PI3Kα, 10 to 1000 nM on PI3Kβ, less than 10 nM at PI3Kδ and 10 to 1000 nM on PI3Kγ.
`CC(c1oc(=O)c2ccccc2c1C1=CCN(CC2CC2)CC1)n1nc(-c2cc(O)cc(F)c2)c2c(N)ncnc21` (centres unmarked) [Example 66, 3-(1-(4-amino-3-(3-fluoro-5-hydroxyphenyl)-1H-pyrazolo[3,4-d]pyrimidin-1-yl)ethyl)-4-(1-(cyclopropylmethyl)-1,2,3,6-tetrahydropyridin-4-yl)-1H-isochromen-1-one hydrochloride]: the IC50 at PI3Kα is 10 to 1000 nM; at PI3Kβ, 10 to 1000 nM; on PI3Kδ, less than 10 nM; on PI3Kγ, 10 to 1000 nM.
As to `CC(c1oc(=O)c2ccccc2c1-c1ccc(CN2CCCCC2)s1)n1nc(-c2cc(O)cc(F)c2)c2c(N)ncnc21` (centres unmarked) [Example 68, 3-(1-(4-amino-3-(3-fluoro-5-hydroxyphenyl)-1H-pyrazolo[3,4-d]pyrimidin-1-yl)ethyl)-4-(5-(piperidin-1-ylmethyl)thiophen-2-yl)-1H-isochromen-1-one hydrochloride], the IC50 on PI3Kα is 10 to 1000 nM; on PI3Kβ it was 10 to 1000 nM; at PI3Kδ it was less than 10 nM; at PI3Kγ, 10 to 1000 nM.
With `CC(c1oc(=O)c2ccccc2c1-c1cccc(C(=O)NCCN(C)C)c1)n1nc(-c2cc(O)cc(F)c2)c2c(N)ncnc21` (centres unmarked) [Example 70, 3-(3-(1-(4-amino-3-(3-fluoro-5-hydroxyphenyl)-1H-pyrazolo[3,4-d]pyrimidin-1-yl)ethyl)-1-oxo-1H-isochromen-4-yl)-N-(2-(dimethylamino)ethyl)benzamide hydrochloride], the IC50 at PI3Kα is more than 1000 nM; on PI3Kβ it was 10 to 1000 nM; on PI3Kδ it was less than 10 nM; on PI3Kγ, 10 to 1000 nM.
Take `CC(=O)N1CC=C(c2c(C(C)n3nc(-c4cncc(O)c4)c4c(N)ncnc43)oc(=O)c3ccccc23)CC1` (centres unmarked) [Example 71, 4-(1-acetyl-1,2,3,6-tetrahydropyridin-4-yl)-3-(1-(4-amino-3-(5-hydroxypyridin-3-yl)-1H-pyrazolo[3,4-d]pyrimidin-1-yl)ethyl)-1H-isochromen-1-one]: the IC50 is 10 to 1000 nM on PI3Kα, 10 to 1000 nM on PI3Kβ, less than 10 nM on PI3Kδ and 10 to 1000 nM on PI3Kγ.
Turning to `CC(=O)N1CC=C(c2c(C(C)n3nc(-c4cc(O)cc(F)c4)c4c(N)ncnc43)oc(=O)c3ccccc23)CC1` (centres unmarked) [Example 72, 4-(1-acetyl-1,2,3,6-tetrahydropyridin-4-yl)-3-(1-(4-amino-3-(3-fluoro-5-hydroxyphenyl)-1H-pyrazolo[3,4-d]pyrimidin-1-yl)ethyl)-1H-isochromen-1-one], the IC50 on PI3Kα is 10 to 1000 nM; at PI3Kβ, 10 to 1000 nM; at PI3Kδ, less than 10 nM; on PI3Kγ, 10 to 1000 nM.
For `CC(c1oc(=O)c2ccccc2c1C1=CC2CCC(C1)N2C)n1nc(-c2cc(O)cc(F)c2)c2c(N)ncnc21` (centres unmarked) [Example 92, 3-(1-(4-amino-3-(3-fluoro-5-hydroxyphenyl)-1H-pyrazolo[3,4-d]pyrimidin-1-yl)ethyl)-4-(8-methyl-8-azabicyclo[3.2.1]oct-2-en-3-yl)-1H-isochromen-1-one hydrochloride], the IC50 on PI3Kα is 10 to 1000 nM; on PI3Kβ, 10 to 1000 nM; at PI3Kδ it was 10 to 1000 nM; at PI3Kγ, more than 1000 nM.
Regarding `Cc1ncc(-c2nn(C(C)c3oc(=O)c4ccccc4c3-c3ccccc3)c3ncnc(N)c23)cc1O` (centres unmarked) [Example 99, 3-(1-(4-amino-3-(5-hydroxy-6-methylpyridin-3-yl)-1H-pyrazolo[3,4-d]pyrimidin-1-yl)ethyl)-4-phenyl-1H-isochromen-1-one], the IC50 at PI3Kα is 10 to 1000 nM; on PI3Kβ, 10 to 1000 nM; on PI3Kδ it was less than 10 nM; at PI3Kγ, 10 to 1000 nM.
As for `CC(c1oc(=O)c2ccccc2c1C1=CCC(N)CC1)n1nc(-c2cc(O)cc(F)c2)c2c(N)ncnc21` (centres unmarked) [Example 103, 3-(1-(4-amino-3-(3-fluoro-5-hydroxyphenyl)-1H-pyrazolo[3,4-d]pyrimidin-1-yl)ethyl)-4-(4-aminocyclohex-1-en-1-yl)-1H-isochromen-1-one hydrochloride], the IC50 on PI3Kα was 10 to 1000 nM; on PI3Kβ it was 10 to 1000 nM; on PI3Kδ, less than 10 nM; at PI3Kγ, more than 1000 nM.
Turning to `CC(NC(=O)c1c(N)nn2cccnc12)c1oc(=O)c2ccccc2c1-c1ccccc1` (centres unmarked) [Example 110, 2-amino-N-(1-(1-oxo-4-phenyl-1H-isochromen-3-yl)ethyl)pyrazolo[1,5-a]pyrimidine-3-carboxamide], the IC50 on PI3Kα, at PI3Kβ, on PI3Kδ and on PI3Kγ was 10 to 1000 nM in each case.
For the compound `CC(Nc1ncnc2[nH]cnc12)c1oc(=O)c2ccccc2c1-c1cncs1` (centres unmarked) [Example 117, 3-(1-(9H-purin-6-ylamino)ethyl)-4-(thiazol-5-yl)-1H-isochromen-1-one], the IC50 is 10 to 1000 nM at PI3Kα, more than 1000 nM on PI3Kβ, less than 10 nM at PI3Kδ and 10 to 1000 nM at PI3Kγ.
`CC(c1oc(=O)c2ccccc2c1-c1ccccc1)n1nc2ncnc(N)c2c1-c1cc(O)cc(F)c1` (centres unmarked) [Example 118, 3-(1-(4-amino-3-(3-fluoro-5-hydroxyphenyl)-2H-pyrazolo[3,4-d]pyrimidin-2-yl)ethyl)-4-phenyl-1H-isochromen-1-one]: the IC50 is 10 to 1000 nM at PI3Kα, more than 1000 nM on PI3Kβ, 10 to 1000 nM at PI3Kδ and more than 1000 nM at PI3Kγ.
In the case of `CC(c1oc(=O)c2ccccc2c1-c1cccc(N(C)C)c1)n1nc(-c2cc(O)cc(F)c2)c2c(N)ncnc21` (centres unmarked) [Example 119, 3-(1-(4-amino-3-(3-fluoro-5-hydroxyphenyl)-1H-pyrazolo[3,4-d]pyrimidin-1-yl)ethyl)-4-(3-(dimethylamino)phenyl)-1H-isochromen-1-one], the IC50 on PI3Kα was more than 1000 nM; at PI3Kβ, more than 1000 nM; on PI3Kδ, 10 to 1000 nM; on PI3Kγ it was 10 to 1000 nM.
With `CC(c1oc(=O)c2ccccc2c1-c1cncs1)n1nc(-c2cc(O)cc(F)c2)c2c(N)ncnc21` (centres unmarked) [Example 120, 3-(1-(4-amino-3-(3-fluoro-5-hydroxyphenyl)-1H-pyrazolo[3,4-d]pyrimidin-1-yl)ethyl)-4-(thiazol-5-yl)-1H-isochromen-1-one], the IC50 was 10 to 1000 nM on PI3Kα, 10 to 1000 nM at PI3Kβ, less than 10 nM at PI3Kδ and 10 to 1000 nM at PI3Kγ.
`CC(c1oc(=O)c2ccccc2c1-c1cnc(N)s1)n1nc(-c2cc(O)cc(F)c2)c2c(N)ncnc21` (centres unmarked) [Example 121, 3-(1-(4-amino-3-(3-fluoro-5-hydroxyphenyl)-1H-pyrazolo[3,4-d]pyrimidin-1-yl)ethyl)-4-(2-aminothiazol-5-yl)-1H-isochromen-1-one hydrochloride]: the IC50 at PI3Kα was more than 1000 nM; at PI3Kβ, 10 to 1000 nM; on PI3Kδ, 10 to 1000 nM; at PI3Kγ, 10 to 1000 nM.
Regarding `CC(Nc1ncnc2[nH]cnc12)c1oc(=O)c2ccccc2c1-c1cn[nH]c1` (centres unmarked) [Example 122, 3-(1-(9H-purin-6-ylamino)ethyl)-4-(1H-pyrazol-4-yl)-1H-isochromen-1-one], the IC50 is 10 to 1000 nM at PI3Kα, 10 to 1000 nM at PI3Kβ, less than 10 nM on PI3Kδ and 10 to 1000 nM on PI3Kγ.
